Measurements from patent publication US8722682B2, “Sulfated benzimidazolone derivatives having mixed serotonin receptor affinity” (Sprout Pharmaceuticals, Inc., priority 2006, dated 2014).

What was measured:
5-HT1A receptor = target: T1, 5-HT1A receptor (Homo sapiens, UniProt P08908); experiment: 5-HT1A receptor binding, [3H]-8-OH-DPAT displacement; details: human recombinant CHO-K1 cells, [3H]-8-OH-DPAT 1.5 nM
T1 construct: expressed in transfected cells; host or cells: CHO-K1
T1 sequence (P08908 1-422): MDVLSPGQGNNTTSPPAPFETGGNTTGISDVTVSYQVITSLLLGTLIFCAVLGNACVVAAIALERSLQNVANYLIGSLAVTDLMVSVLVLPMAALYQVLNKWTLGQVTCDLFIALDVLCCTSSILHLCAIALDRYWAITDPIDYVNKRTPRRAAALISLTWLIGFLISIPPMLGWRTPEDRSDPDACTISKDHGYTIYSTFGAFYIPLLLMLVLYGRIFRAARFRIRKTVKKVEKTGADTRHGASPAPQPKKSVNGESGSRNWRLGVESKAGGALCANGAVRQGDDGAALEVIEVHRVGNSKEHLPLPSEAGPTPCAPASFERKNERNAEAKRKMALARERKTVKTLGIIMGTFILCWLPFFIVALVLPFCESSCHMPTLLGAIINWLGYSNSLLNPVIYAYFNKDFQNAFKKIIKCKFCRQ
Procedure: (§1) Binding studies can be carried out to determine the affinity of the compounds for 5-HT1A and 5-HT2A receptors
Human recombinant CHO-K1 cells are used. Displacement experiments can be performed by incubating the cells in 50 mM Tris-HCL, pH 7.4, 0.1% ascorbic acid, 0.5 mM EDTA, 10 mM MgSo4 and in the presence of [^3H]-8-OH-DPAT (1.5 nM) at 27° C. for 60 min. Non specific binding was determined in the presence of 10 μM mertergoline.
The test compounds dissolved in DMSO, along with the positive control compound metergoline are tested over 10-log unit concentrations for their ability to compete for [^3H]8-OH-DPAT binding (May J A, et al., J Pharmacol Exp Ther. 306(1):301, 2003. Martin G R and Humphrey P P A Neuropharmacol. 33:261, 1994). […] The radioactivity is counted on a β-counter, and the data are analyzed by a nonlinear, iterative, curve-fitting computer program.
Where presented, IC50 values are determined by a non-linear, least squares regression analysis using Data Analysis Toolboxä (MDL Information Systems, San Leandro, Calif., USA). Where inhibition constants (Ki) are presented, the Ki values are calculated using the equation of Cheng and Prusoff (Cheng, Y., Prusoff, W. H., Biochem. Pharmacol. 22:3099-3108, 1973) using the observed IC50 of the tested compound, the concentration of radioligand employed in the assay, and the historical values for the Ki of the ligand).

5-HT2A receptor = target: T2, 5-HT2A receptor (Homo sapiens, UniProt P28223); experiment: 5-HT2A receptor binding, [3H]-Ketanserin displacement; details: human recombinant CHO-K1 cells, [3H]-Ketanserin 0.5 nM
T2 construct: expressed in transfected cells; host or cells: CHO-K1
T2 sequence (P28223 whole entry): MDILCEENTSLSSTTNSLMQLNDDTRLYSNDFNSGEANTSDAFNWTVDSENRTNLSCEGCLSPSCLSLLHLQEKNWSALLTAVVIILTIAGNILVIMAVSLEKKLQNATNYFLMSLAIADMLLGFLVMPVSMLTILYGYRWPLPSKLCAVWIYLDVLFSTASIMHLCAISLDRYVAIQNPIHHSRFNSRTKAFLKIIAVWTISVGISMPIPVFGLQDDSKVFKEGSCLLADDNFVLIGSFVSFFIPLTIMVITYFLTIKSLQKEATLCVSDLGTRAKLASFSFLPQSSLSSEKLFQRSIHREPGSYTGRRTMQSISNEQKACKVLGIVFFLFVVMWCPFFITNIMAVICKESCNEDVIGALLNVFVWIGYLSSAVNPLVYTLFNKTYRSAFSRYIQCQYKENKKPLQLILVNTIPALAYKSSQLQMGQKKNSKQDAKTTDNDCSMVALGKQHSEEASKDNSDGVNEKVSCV
Procedure: as §1
Human recombinant CHO-K1 cells can be used. Displacement experiments are performed by incubating the cells in 50 mM Tris-HCL, pH 7.7 in the presence of [^3H]-Ketanserin (0.5 nM) at 25° C. for 60 min. Non specific binding was determined in the presence of 1 μM Mianserin.
The test compounds, along with the positive control compound ketanserin are tested over 10-log unit concentrations for their ability to compete for [^3H]-Ketanserin (Saucier C and Albert P R. J. Neurochem. 68:1998, 1997. Bonhaus D W et al., Br J Pharmacol. 115:622, 1995). The assays are terminated by rapid vacuum filtration over glass fiber filters. The radioactivity is counted on a β-counter, and the data are analyzed by a nonlinear, iterative, curve-fitting computer program. Where presented, IC50 values are determined by a non-linear, least squares regression analysis using Data Analysis Toolboxä (MDL Information Systems, San Leandro, Calif., USA). Where inhibition constants (Ki) are presented, the Ki values are calculated using the equation of Cheng and Prusoff (Cheng, Y., Prusoff, W. H., Biochem. Pharmacol. 22:3099-3108, 1973) using the observed IC50 of the tested compound, the concentration of radioligand employed in the assay, and the historical values for the Ki of the ligand).

Ki (5-HT1A receptor): 808 nM
Ki (5-HT2A receptor): 207 nM
SMILES: O=c1[nH]c2ccc(OS(=O)(=O)O)cc2n1CCN1CCN(c2cccc(C(F)(F)F)c2)CC1 [I(b), {2-oxo-3-{2-[4-(3-trifluoromethyl-phenyl)-piperazin-1-yl]-ethyl}-2,3-dihydro-1H-benzimidazol-5-yl}mono sulfuric acid ester]
